# According to US11013696B2, “Lipids and lipid compositions for the delivery of active agents” (Novartis AG, priority 2013, dated 2021):
# Legend:
# [1] = Entrapment and RNA concentration of RSV-F replicon liposomes (Quant-iT RiboGreen); format: physicochemical
# Protocol: RNA was encapsulated in liposomes made essentially by the method of Geall et al. (2012) PNAS vol. 109 (36): 14604-14609, Jeffs et al. (2005) Pharmaceutical Research 22 (3):362-372 and Maurer et al. (2001) Biophysical Journal, 80: 2310-2326 The liposomes were made of 10% DSPC (zwitterionic), 40% cationic lipid, 48% cholesterol and 2% PEG-conjugated DMG (2 kDa PEG). These proportions refer to the % moles in the total liposome.
# Briefly, lipids were dissolved in ethanol (2 ml), a RNA replicon was dissolved in buffer (2 ml, 100 mM sodium citrate, pH 6) and these were mixed with 2 ml of buffer followed by 1 hour of equilibration. The mixture was then dialized overnight against 1×PBS. The resulting product contained liposomes, with ˜70-95% encapsulation efficiency. For in vitro and in vivo experiments formulations were diluted to the required RNA concentration with 1×PBS.
# The percentage of encapsulated RNA and RNA concentration were determined by Quant-iT RiboGreen RNA reagent kit (Invitrogen), following manufacturer's instructions. The ribosomal RNA standard provided in the kit was used to generate a standard curve. Liposomes were diluted 10× or 100× in 1×TE buffer (from kit) before addition of the dye. Separately, liposomes were diluted 10× or 100× in 1×TE buffer containing 0.5% Triton X before addition of the dye (to disrupt the liposomes and thus to assay total RNA). Thereafter an equal amount of dye was added to each solution and then ˜180 μL of each solution after dye addition was loaded in duplicate into a 96 well tissue culture plate. The fluorescence (Ex 485 nm, Em 528 nm) was read on a microplate reader. All liposome formulations were dosed in vivo based on the encapsulated amount of RNA.
# (§1) A self-replicating replicon encoding RSV F protein was administered to BALB/c mice, 8 animals per group, by bilateral intramuscular vaccinations (50 μL per leg) on days 0 and 21 with the replicon (0.1 and 1 ng) formulated as liposomes with the lipids described below. All liposomes tested were composed of 40% cationic lipid, 10% DSPC, 48% cholesterol and 2% PEG-DMG with similar amounts of RNA. The liposomes were all prepared using the same technique as described above.
# (§2) % entrapment (% E), Concentration of RNA (Conc), particle size measured by DLS, and polydispersity reported by DLS of LNPs prepared with different cationic lipids
# [2] = Particle size and polydispersity by DLS of RSV-F replicon LNPs; format: physicochemical
# Protocol: as §1, §2
# RSV F protein = assay: RSV immunogenicity: IgG titers after two IM immunizations with vA375 RNA expressing RSV-F in LNPs; format: in vivo, BALB/c mice; settings: IM days 0 and 21, two weeks after two immunizations
# [3] = Percent encapsulation of mRNA in lipid nanoparticles (Quant-iT Ribogreen); format: physicochemical; settings: Table 2; leptin mRNA in LNP with the cationic lipid
# How it was run: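 LNPs made by T-junction mixing of ethanolic lipids (cationic lipid:DSPC:cholesterol:PEG lipid 40:10:38:2, N:P 4:1) with mRNA in citrate pH 5.8-6.0, then dialysed against PBS overnight at 4 °C. RiboGreen fluorescence (ex 480/em 520 nm) measured in TE ± 0.75% Triton X-100; encapsulation = (total − free)/total.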
# [4] = siRNA encapsulation in lipid nanoparticles (SYBR Gold); format: physicochemical; settings: Table 2; FVII siRNA in LNP with the cationic lipid
# How it was run: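 SYBR Gold fluorescence (ex 485/em 530 nm) of LNPs made by impinging-jet mixing of ethanolic lipids (cationic, cholesterol, optional DSPC, PEG/stealth lipid) with siRNA in citrate pH 4-6, siRNA:lipid ~0.05 wt/wt. Samples with and without Triton X-100 gave free and total siRNA for encapsulation efficiency.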
# [5] = RSV-F replicon LNP prepared for 1st IM
# [6] = RSV-F replicon LNP prepared for 2nd IM
SMILES,"% E (% entrapment) [1, 5] [%]","% E (% entrapment) [1, 6] [%]","PDI [2, 5]","Size [2, 5] [nm]","PDI [2, 6]","Size [2, 6] [nm]","Immunogenicity (2wp2, log10 IgG titers) (RSV F protein; 0.1 ng vA375 RNA) [log10 IgG titers]","Immunogenicity (2wp2, log10 IgG titers) (RSV F protein; 1 ng vA375 RNA) [log10 IgG titers]",% encapsulation mRNA Leptin [3] [%],% encapsulation siRNA FVII [4] [%]
"CCCCC/C=C\C/C=C\CCCCCCCC(=O)OCC(COC(=O)CCCCCCC/C=C\C/C=C\CCCCC)COC(=O)CCC(CCCCCCCCCCCC)OC(=O)OCCCN(C)C (stereo not drawn) [Example 105, (9Z,9′Z,12Z,12′Z)-2-(9-dodecyl-2-methyl-7,12-dioxo-6,8,13-trioxa-2-azatetradecan-14-yl)propane-1,3-diyl bis(octadeca-9,12-dienoate)]",85.22,69.54,0.107,137.2,0.123,135.7,4.21,4.53,–,–
"CCCCCCCCCCCCC(CCOC(=O)CCCCC(OCC(CCC)CCC)OCC(CCC)CCC)OC(=O)OCCCN(C)C (stereo not drawn) [Example 115, 3-(((3-(dimethylamino)propoxy)carbonyl)oxy)pentadecyl 6,6-bis((2-propylpentyl)oxy)hexanoate]",95.76,95.78,0.075,141.3,0.065,130.9,1.91,3.31,97.8,–
"CCCCCCCCCCCCC(CCCOC(=O)CCCCC(COC(=O)CCCCCCC)COC(=O)CCCCCCC)OC(=O)C1(C)CCN(C)CC1 (stereo not drawn) [Example 131, 2-(5-((4-((1,4-dimethylpiperidine-4-carbonyl)oxy)hexadecyl)oxy)-5-oxopentyl)propane-1,3-diyl dioctanoate]",85.31,80.31,0.119,138.3,0.07,143.5,4.43,5.22,96.4,–
"CCCCC/C=C\C/C=C\CCCCCCCC(=O)OCC(COC(=O)CCCCCCC/C=C\C/C=C\CCCCC)OC(=O)C(CCCCCCCCCCCC)OC(=O)OCCCN(C)C (stereo not drawn) [Example 98, (9Z,9′Z,12Z,12′Z)-2-((2-(((3-(dimethylamino)propoxy)carbonyl)oxy)tetradecanoyl)oxy)propane-1,3-diyl bis(octadeca-9,12-dienoate)]",85.91,76.36,0.07,139.4,0.065,130.9,4.28,4.64,73.4,–
"CCCCC/C=C\C/C=C\CCCCCCCCC(CCCOC(=O)CCC(=O)OC(CCCCCCCC)CCCCCCCC)OC(=O)OCCCN(C)C (stereo not drawn) [Example 58, (13Z,16Z)-4-(((3-(dimethylamino)propoxy)carbonyl)oxy)docosa-13,16-dien-1-yl heptadecan-9-yl succinate]",87.48,87.03,0.111,139.4,0.075,137.1,4.19,4.26,90.2,–
"CCCCCCCCCCCCC(CCOC(=O)CCCCCCC(OCC(CCC)CCC)OCC(CCC)CCC)OC(=O)OCCCN(CC)CC (stereo not drawn) [Example 21, 3-(((3-(diethylamino)propoxy)carbonyl)oxy)pentadecyl 8,8-bis((2-propylpentyl)oxy)octanoate]",–,–,–,–,–,–,–,–,98.2,91.2
"CCCCCCCCCCCCC(CCC(=O)OC(COC(=O)CCCCCCCCCCC)COC(=O)CCCCCCCCCCC)OC(=O)OCCCN(CC)CC (stereo not drawn) [Example 88, 2-((4-(((3-(diethylamino)propoxy)carbonyl)oxy)hexadecanoyl)oxy)propane-1,3-diyl didodecanoate]",–,–,–,–,–,–,–,–,39.2,77.4
